The source made the active and inactive calls. No cut-off for these calls is given here.
What was measured:
Caenorhabditis elegans [1] = test: Reduction in resistance to H2O2-induced oxidative stress in wild type Caenorhabditis elegans N2 assessed as survival at 250 nM incubated 1 hr prior to H2O2 challenge relative to control; type: functional, organism-based
[2] = (§1) Transactivation of Caenorhabditis elegans DAF-12 receptor LBD transfected in HEK293 cells co-expressing Gal4-DBD after 20 hrs by luciferase reporter gene assay; type: cell-based; settings: HEK293, 20 h
HEK293 = test: as §1; type: cell-based
Caenorhabditis elegans [3] = test: Activation of DAF-12 receptor in Caenorhabditis elegans RG1228 harboring daf-9(rh50) mutant assessed as mig phenotype rescue at 250 nM after 3 days
Caenorhabditis elegans [4] = test: Reduction in resistance to H2O2-induced oxidative stress in Caenorhabditis elegans RG1228 harboring daf-9(rh50) mutant assessed as survival at 250 nM incubated 1 hr prior to H2O2 challenge; type: functional, organism-based

C[C@H](CCCCC(=O)O)[C@H]1CC[C@H]2[C@@H]3CCC4=CC(=O)CC[C@]4(C)[C@H]3CC[C@]12C
Activity (Caenorhabditis elegans [1]): Active | EC50 [2]: 10 µM | Activity (HEK293): Dose-dependent effect | Activity (Caenorhabditis elegans [3]): Active | Activity (Caenorhabditis elegans [4]): Active
